Measurements from ChEMBL document CHEMBL1147101, “Development and persistence of antimicrobial resistance in Pseudomonas aeruginosa: a longitudinal observation in mechanically ventilated patients” (Antimicrob Agents Chemother, 2007).
Calls of active or inactive are those of the source. The rule behind the calls is not given here.

Tests used:
Assay type in all cases: functional, organism-based
Conditions in all cases: Trachea
[1] = tested on: Pseudomonas aeruginosa; test: Antimicrobial activity against Pseudomonas aeruginosa 13D11 tracheal isolates from mechanically ventilated chronic respiratory insufficiency patient
[2] = tested on: Pseudomonas aeruginosa; test: Antimicrobial activity against Pseudomonas aeruginosa 22E1 tracheal isolates from mechanically ventilated chronic respiratory insufficiency patient
[3] = tested on: Pseudomonas aeruginosa; test: Antimicrobial activity against Pseudomonas aeruginosa 19E9 tracheal isolates from mechanically ventilated chronic respiratory insufficiency patient
[4] = tested on: Pseudomonas aeruginosa; test: Antimicrobial activity against Pseudomonas aeruginosa 12B2 tracheal isolates from mechanically ventilated chronic respiratory insufficiency patient
[5] = tested on: Pseudomonas aeruginosa; test: Antimicrobial activity against Pseudomonas aeruginosa 65.38-3 tracheal isolates from mechanically ventilated tuberculosis patient
[6] = tested on: Pseudomonas aeruginosa; test: Antimicrobial activity against Pseudomonas aeruginosa 22D2 tracheal isolates from mechanically ventilated chronic respiratory insufficiency patient
[7] = tested on: Pseudomonas aeruginosa; test: Antimicrobial activity against Pseudomonas aeruginosa 13E1 tracheal isolates from mechanically ventilated chronic respiratory insufficiency patient
[8] = tested on: Pseudomonas aeruginosa; test: Antimicrobial activity against Pseudomonas aeruginosa 2A2 tracheal isolates from mechanically ventilated tuberculosis patient
[9] = tested on: Pseudomonas aeruginosa; test: Antimicrobial activity against Pseudomonas aeruginosa 9B5 tracheal isolates from mechanically ventilated chronic respiratory insufficiency patient
[10] = tested on: Pseudomonas aeruginosa; test: Antimicrobial activity against Pseudomonas aeruginosa 1A9 tracheal isolates from mechanically ventilated tuberculosis patient
[11] = tested on: Pseudomonas aeruginosa; test: Antimicrobial activity against Pseudomonas aeruginosa 24E5 tracheal isolates from mechanically ventilated chronic respiratory insufficiency patient
[12] = tested on: Pseudomonas aeruginosa; test: Antimicrobial activity against Pseudomonas aeruginosa 3D10 tracheal isolates from mechanically ventilated chronic respiratory insufficiency patient
[13] = tested on: Pseudomonas aeruginosa; test: Antimicrobial activity against Pseudomonas aeruginosa 5F8 tracheal isolates from mechanically ventilated chronic respiratory insufficiency patient
[14] = tested on: Pseudomonas aeruginosa; test: Antimicrobial activity against Pseudomonas aeruginosa 22D9 tracheal isolates from mechanically ventilated chronic respiratory insufficiency patient
[15] = tested on: Pseudomonas aeruginosa; test: Antimicrobial activity against Pseudomonas aeruginosa 15H5 tracheal isolates from mechanically ventilated chronic respiratory insufficiency patient
[16] = tested on: Pseudomonas aeruginosa; test: Antimicrobial activity against Pseudomonas aeruginosa 19D9 tracheal isolates from mechanically ventilated chronic respiratory insufficiency patient
[17] = tested on: Pseudomonas aeruginosa; test: Antimicrobial activity against Pseudomonas aeruginosa 3D1 tracheal isolates from mechanically ventilated chronic respiratory insufficiency patient
[18] = tested on: Pseudomonas aeruginosa; test: Antimicrobial activity against Pseudomonas aeruginosa 22C5 tracheal isolates from mechanically ventilated chronic respiratory insufficiency patient
[19] = tested on: Pseudomonas aeruginosa; test: Antimicrobial activity against Pseudomonas aeruginosa 29G6 tracheal isolates from mechanically ventilated chronic respiratory insufficiency patient
[20] = tested on: Pseudomonas aeruginosa; test: Antimicrobial activity against Pseudomonas aeruginosa 2F6 tracheal isolates from mechanically ventilated tuberculosis patient
[21] = tested on: Pseudomonas aeruginosa; test: Antimicrobial activity against Pseudomonas aeruginosa 8B11 tracheal isolates from mechanically ventilated chronic respiratory insufficiency patient
[22] = tested on: Pseudomonas aeruginosa; test: Antimicrobial activity against Pseudomonas aeruginosa 2C2 tracheal isolates from mechanically ventilated tuberculosis patient
[23] = tested on: Pseudomonas aeruginosa; test: Antimicrobial activity against Pseudomonas aeruginosa 65.68-3 tracheal isolates from mechanically ventilated tuberculosis patient
[24] = tested on: Pseudomonas aeruginosa; test: Antimicrobial activity against Pseudomonas aeruginosa 65.36-3 tracheal isolates from mechanically ventilated tuberculosis patient
[25] = tested on: Pseudomonas aeruginosa; test: Antimicrobial activity against Pseudomonas aeruginosa 5H6 tracheal isolates from mechanically ventilated chronic respiratory insufficiency patient
[26] = tested on: Pseudomonas aeruginosa; test: Antimicrobial activity against Pseudomonas aeruginosa 12A7 tracheal isolates from mechanically ventilated chronic respiratory insufficiency patient
[27] = tested on: Pseudomonas aeruginosa; test: Antimicrobial activity against Pseudomonas aeruginosa 22E3 tracheal isolates from mechanically ventilated chronic respiratory insufficiency patient
[28] = tested on: Pseudomonas aeruginosa; test: Antimicrobial activity against Pseudomonas aeruginosa 65.36-1 tracheal isolates from mechanically ventilated tuberculosis patient
[29] = tested on: Pseudomonas aeruginosa; test: Antimicrobial activity against Pseudomonas aeruginosa 65.33-2 tracheal isolates from mechanically ventilated tuberculosis patient
[30] = tested on: Pseudomonas aeruginosa; test: Antimicrobial activity against Pseudomonas aeruginosa 65.68-1 tracheal isolates from mechanically ventilated tuberculosis patient
[31] = tested on: Pseudomonas aeruginosa; test: Antimicrobial activity against Pseudomonas aeruginosa 19B3 tracheal isolates from mechanically ventilated chronic respiratory insufficiency patient
[32] = tested on: Pseudomonas aeruginosa; test: Antimicrobial activity against Pseudomonas aeruginosa 2C1 tracheal isolates from mechanically ventilated tuberculosis patient
[33] = tested on: Pseudomonas aeruginosa; test: Antimicrobial activity against Pseudomonas aeruginosa 8A2 tracheal isolates from mechanically ventilated chronic respiratory insufficiency patient
[34] = tested on: Pseudomonas aeruginosa; test: Antimicrobial activity against Pseudomonas aeruginosa P21.21 tracheal isolates from mechanically ventilated tuberculosis patient
[35] = tested on: Pseudomonas aeruginosa; test: Antimicrobial activity against Pseudomonas aeruginosa P21.23 tracheal isolates from mechanically ventilated tuberculosis patient
[36] = tested on: Pseudomonas aeruginosa; test: Antimicrobial activity against Pseudomonas aeruginosa 2A9 tracheal isolates from mechanically ventilated tuberculosis patient
[37] = tested on: Pseudomonas aeruginosa; test: Antimicrobial activity against Pseudomonas aeruginosa 29G8 tracheal isolates from mechanically ventilated chronic respiratory insufficiency patient
[38] = tested on: Pseudomonas aeruginosa; test: Antimicrobial activity against Pseudomonas aeruginosa 65.33-1 tracheal isolates from mechanically ventilated tuberculosis patient
[39] = tested on: Pseudomonas aeruginosa; test: Antimicrobial activity against Pseudomonas aeruginosa 10B1 tracheal isolates from mechanically ventilated chronic respiratory insufficiency patient
[40] = tested on: Pseudomonas aeruginosa; test: Antimicrobial activity against Pseudomonas aeruginosa 1B9 tracheal isolates from mechanically ventilated tuberculosis patient
[41] = tested on: Pseudomonas aeruginosa; test: Antimicrobial activity against Pseudomonas aeruginosa 3B1 tracheal isolates from mechanically ventilated tuberculosis patient
[42] = tested on: Pseudomonas aeruginosa; test: Antimicrobial activity against Pseudomonas aeruginosa 19C7 tracheal isolates from mechanically ventilated chronic respiratory insufficiency patient
[43] = tested on: Pseudomonas aeruginosa; test: Antimicrobial activity against Pseudomonas aeruginosa 19E2 tracheal isolates from mechanically ventilated chronic respiratory insufficiency patient
[44] = tested on: Pseudomonas aeruginosa; test: Antimicrobial activity against Pseudomonas aeruginosa 65.68-4 tracheal isolates from mechanically ventilated tuberculosis patient
[45] = tested on: Pseudomonas aeruginosa; test: Antimicrobial activity against Pseudomonas aeruginosa 19B6 tracheal isolates from mechanically ventilated chronic respiratory insufficiency patient
[46] = tested on: Pseudomonas aeruginosa; test: Antimicrobial activity against Pseudomonas aeruginosa 12A3 tracheal isolates from mechanically ventilated chronic respiratory insufficiency patient
[47] = tested on: Pseudomonas aeruginosa; test: Antimicrobial activity against Pseudomonas aeruginosa 16D5 tracheal isolates from mechanically ventilated chronic respiratory insufficiency patient
[48] = tested on: Pseudomonas aeruginosa; test: Antimicrobial activity against Pseudomonas aeruginosa 3E2 tracheal isolates from mechanically ventilated chronic respiratory insufficiency patient
[49] = tested on: Pseudomonas aeruginosa; test: Antimicrobial activity against Pseudomonas aeruginosa 2A3 tracheal isolates from mechanically ventilated tuberculosis patient
[50] = tested on: Pseudomonas aeruginosa; test: Antimicrobial activity against Pseudomonas aeruginosa 65.38-1 tracheal isolates from mechanically ventilated tuberculosis patient
[51] = tested on: Pseudomonas aeruginosa; test: Antimicrobial activity against Pseudomonas aeruginosa 22D6 tracheal isolates from mechanically ventilated chronic respiratory insufficiency patient
[52] = tested on: Pseudomonas aeruginosa; test: Antimicrobial activity against Pseudomonas aeruginosa 15G2 tracheal isolates from mechanically ventilated chronic respiratory insufficiency patient
[53] = tested on: Pseudomonas aeruginosa; test: Antimicrobial activity against Pseudomonas aeruginosa 2A7 tracheal isolates from mechanically ventilated tuberculosis patient
[54] = tested on: Pseudomonas aeruginosa; test: Antimicrobial activity against Pseudomonas aeruginosa 10B3 tracheal isolates from mechanically ventilated chronic respiratory insufficiency patient
[55] = tested on: Pseudomonas aeruginosa; test: Antimicrobial activity against Pseudomonas aeruginosa 29G7 tracheal isolates from mechanically ventilated chronic respiratory insufficiency patient
[56] = tested on: Pseudomonas aeruginosa; test: Antimicrobial activity against Pseudomonas aeruginosa 65.36-2 tracheal isolates from mechanically ventilated tuberculosis patient
[57] = tested on: Pseudomonas aeruginosa; test: Antimicrobial activity against Pseudomonas aeruginosa 2A5 tracheal isolates from mechanically ventilated tuberculosis patient
[58] = tested on: Pseudomonas aeruginosa; test: Antimicrobial activity against Pseudomonas aeruginosa 65.68-2 tracheal isolates from mechanically ventilated tuberculosis patient
[59] = tested on: Pseudomonas aeruginosa; test: Antimicrobial activity against Pseudomonas aeruginosa 65.33-4 tracheal isolates from mechanically ventilated tuberculosis patient

CC(C)(O/N=C(\C(=O)N[C@@H]1C(=O)N2C(C(=O)[O-])=C(C[n+]3ccccc3)CS[C@H]12)c1csc(N)n1)C(=O)O
Activity [1]: Active
Activity [2]: Active
Activity [3]: Active
Activity [4]: Active
Activity [5]: inactive
Activity [6]: Active
Activity [7]: Active
Activity [8]: Active
Activity [9]: Active
Activity [10]: inactive
Activity [11]: Active
Activity [12]: Active
Activity [13]: Active
Activity [14]: Active
Activity [15]: Active
Activity [16]: Active
Activity [17]: Active
Activity [18]: Active
Activity [19]: Active
Activity [20]: inactive
Activity [21]: Active
Activity [22]: Active
Activity [23]: Active
Activity [24]: Active
Activity [25]: Active
Activity [26]: Active
Activity [27]: Active
Activity [28]: Active
Activity [29]: Active
Activity [30]: Active
Activity [31]: Active
Activity [32]: inactive
Activity [33]: Active
Activity [34]: Active
Activity [35]: Active
Activity [36]: inactive
Activity [37]: Active
Activity [38]: Active
Activity [39]: Active
Activity [40]: inactive
Activity [41]: Active
Activity [42]: Active
Activity [43]: Active
Activity [44]: Active
Activity [45]: Active
Activity [46]: Active
Activity [47]: Active
Activity [48]: Active
Activity [49]: Active
Activity [50]: inactive
Activity [51]: Active
Activity [52]: Active
Activity [53]: inactive
Activity [54]: Active
Activity [55]: Active
Activity [56]: Active
Activity [57]: Active
Activity [58]: Active
Activity [59]: Active

CCn1cc(C(=O)O)c(=O)c2cc(F)c(N3CCNCC3)cc21
Activity [1]: Active
Activity [2]: Active
Activity [3]: Active
Activity [4]: Active
Activity [5]: Active
Activity [6]: Active
Activity [7]: Active
Activity [8]: Active
Activity [9]: Active
Activity [10]: Active
Activity [11]: Active
Activity [12]: Active
Activity [13]: Active
Activity [14]: Active
Activity [15]: Active
Activity [16]: inactive
Activity [17]: Active
Activity [18]: Active
Activity [19]: Active
Activity [20]: Active
Activity [21]: Active
Activity [22]: Active
Activity [23]: Active
Activity [24]: Active
Activity [25]: Active
Activity [26]: Active
Activity [27]: Active
Activity [28]: Active
Activity [29]: Active
Activity [30]: Active
Activity [31]: Active
Activity [32]: Active
Activity [33]: Active
Activity [34]: Active
Activity [35]: Active
Activity [36]: Active
Activity [37]: Active
Activity [38]: Active
Activity [39]: Active
Activity [40]: Active
Activity [41]: Active
Activity [42]: Active
Activity [43]: Active
Activity [44]: Active
Activity [45]: Active
Activity [46]: Active
Activity [47]: Active
Activity [48]: Active
Activity [49]: Active
Activity [50]: Active
Activity [51]: Active
Activity [52]: inactive
Activity [53]: Active
Activity [54]: Active
Activity [55]: Active
Activity [56]: Active
Activity [57]: Active
Activity [58]: Active
Activity [59]: Active
